Laboratory results from patent US20240050408A1, “USE OF MGLUR5 ANTAGONISTS FOR TREATING AMPHETAMINE ADDICTION” (NOVARTIS AG, priority 2020, published 2024).

Tests used:
[1] = tested on: patients with Cocaine Use Disorder (CUD); test: Phase 2 trial: alcohol consumption by TLFB; type: in vivo, human; details: difference vs placebo not statistically significant (P=0.072)
Experimental: (§1) This study was conducted in patients with CUD and consisted of about a 21-day screening period followed by a 7-day baseline period, a 98-day outpatient treatment period, and an end of study visit evaluation about 14 days after the last study drug administration ([…]. A). Study treatment was taken twice daily (separated by about 12-hour intervals) with food. For patients in the mavoglurant arm [mavoglurant (free form) provided as modified release formulation (e.g. in WO2014/199316)], an uptitration regimen was performed for 14 days (50 mg b.i.d. from Days 1 to 7 and 100 mg b.i.d from Days 8 to 14) and was followed by 200 mg b.i.d for 84 days.
Alcohol consumption was recorded by the subjects using TLFB. The number of drinks was recorded daily. […] The past consumption of alcohol was the proportion of alcohol over the 28 days preceding the screening visit, which was assessed retrospectively using the TLFB. […]
Patient Reported Outcome included: • 1. The TLFB cocaine: is a cocaine assessment method that obtains estimates of daily cocaine intake and has been evaluated with clinical and nonclinical populations. […] The TLFB alcohol: is a drinking assessment method that obtains estimates of daily drinking and has been evaluated with clinical and nonclinical populations. […]

[2] = tested on: patients with Cocaine Use Disorder (CUD); test: Phase 2 trial: quantitative urine measurement of benzoylecgonine (BE); type: in vivo, human; details: 98-day administration, P=0.025
Experimental: as §1
The primary endpoint was the proportion of cocaine use days during the treatment period, assessed by timeline followback [TLFB] cocaine self-report report. The secondary endpoints included a weekly urine analysis for a log-transformed quantitative measure of cocaine metabolite benzoylecgonine (BE), safety assessments (clinical parameters, suicidal ideation, adverse events [AE] and serious adverse events [SAE] at every visit), and pre- and post-dose levels of mavoglurant in the plasma. […]
Two urine samples per week provided a log-transformed quantitative measure of BE (cocaine's metabolite). […]

COC(=O)N1CC[C@@H]2[C@H]1CCC[C@@]2(O)C#Cc1cccc(C)c1 [mavoglurant, (-)-(3aR,4S,7aR)-4-Hydroxy-4-m-tolylethynyl-octahydro-indole-1-carboxylic acid methyl ester]
alcohol consumption by TLFB [1]: reduced alcohol consumption | cocaine consumption as assessed by urine benzoylecgonine (BE) vs placebo [2]: significantly lower levels of BE in urine | cocaine consumption as assessed by urine benzoylecgonine (BE) vs placebo ([2]; listed as Mavoglurant): significantly reduced cocaine consumption
